Test results from US7902248B2, “Oxime glucokinase activators” (Hoffmann-La Roche Inc., priority 2006, dated 2011).

What follows are compounds tested against T1, Recombinant human liver GK (GST-GK) (Homo sapiens, UniProt P35557) (assay: In vitro glucokinase activity assay (G6PDH-coupled NADH generation, OD 340 nm)). Conditions: concentration of activator that produced a 50% increase in the activity of GK; 5 mM D-glucose, 25° C.-30° C., pH 7.1.
T1 construct: made in house; host or cells: E. coli
T1 sequence (P35557 1-466 isoform P35557-2): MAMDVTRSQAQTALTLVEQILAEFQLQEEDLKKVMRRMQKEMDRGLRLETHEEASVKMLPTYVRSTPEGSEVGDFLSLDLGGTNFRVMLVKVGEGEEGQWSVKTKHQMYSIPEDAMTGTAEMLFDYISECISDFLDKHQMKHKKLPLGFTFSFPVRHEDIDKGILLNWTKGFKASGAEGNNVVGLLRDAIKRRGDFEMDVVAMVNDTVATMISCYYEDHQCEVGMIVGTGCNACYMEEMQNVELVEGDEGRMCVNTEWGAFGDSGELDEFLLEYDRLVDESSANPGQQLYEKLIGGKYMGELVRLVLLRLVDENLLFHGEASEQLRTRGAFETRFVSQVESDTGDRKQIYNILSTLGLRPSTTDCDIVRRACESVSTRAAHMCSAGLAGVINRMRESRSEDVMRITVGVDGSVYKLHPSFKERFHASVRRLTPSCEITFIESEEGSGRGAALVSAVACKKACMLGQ
Type: biochemical
Description: Glucokinase In Vitro Assay Protocol. Glucokinase (GK) was assayed by coupling the production of glucose-6-phosphate to the generation of NADH with glucose-6-phosphate dehydrogenase (G6PDH, Roche) from Leuconostoc mesenteroides as the coupling enzyme (Scheme 2).
Recombinant human liver GK was expressed in E. coli as a glutathione S-transferase fusion protein (GST-GK) [Liang et al, 1995] and was purified by chromatography over a glutathione-Sepharose 4B affinity column using the procedure provided by the manufacturer (Amersham Pharmacia Biotech, Piscataway, N.J.).
The assay was conducted at 25° C.-30° C. in a flat bottom 96-well tissue culture plate from Costar (Cambridge, Mass.) with a final incubation volume of 120 μL. The incubation reaction contained the following: 25 mM Hepes buffer (pH 7.1), 25 mM KCl, 5 mM D-glucose, 1 mM ATP, 1.8 mM NAD, 2 mM MgCl2, 1 μM sorbitol-6-phosphate, 1 mM dithiothreitol, test drug or 10% DMSO, 1.8 unit/ml G6PDH, and GK (see below). All organic reagents were >98% pure and were from Roche with the exceptions of D-glucose and Hepes which were from Sigma Chemical Co, St Louis, Mo. Test compounds were dissolved in DMSO and were added to the incubation reaction minus GST-GK in a volume of 12 μL to yield a final DMSO concentration of 10%. This mix was pre-incubated in the temperature controlled chamber of a SPECTRAmax 250 microplate spectrophotometer (Molecular Devices Corporation, Sunnyvale, Calif.) for 10 minutes to allow temperature equilibrium and then the reaction was started by the addition of 20 μL GST-GK.
After addition of enzyme, the increase in optical density (OD) at 340 nm was monitored over a 15 minute incubation period as a measure of GK activity. The GK activity in control wells (mOD/min) was compared with the activity in wells containing test GK activators (mOD/min), and the concentration of activator that produced a 50% increase in the activity of GK, i.e., the SC1.5, was calculated.

SC1.5 [µM] | SMILES
1.1 | CS(=O)(=O)c1ccc(/C(=N\OC2CCCCC2)C(=O)Nc2ncc(C(N)=O)s2)cc1Cl [Example 12, (E)-2-[2-(3-Chloro-4-methanesulfonyl-phenyl)-2-cyclohexyloxyimino-acetylamino]-thiazole-5-carboxylic acid amide]
8.4 | Cc1nsc(NC(=O)/C(=N/OC2CCCCC2)c2ccc(S(C)(=O)=O)c(Cl)c2)n1 [Example 10, (E)-2-(3-Chloro-4-methanesulfonyl-phenyl)-2-cyclohexyloxyimino-N-(3-methyl-[1,2,4]thiadiazol-5-yl)-acetamide]
2.8 | CS(=O)(=O)c1ccc(/C(=N\OC2CCCC2)C(=O)Nc2nc3ccc(Cl)cc3s2)cc1Cl [Example 23, (E)-N-(6-Chloro-benzothiazol-2-yl)-2-(3-chloro-4-methanesulfonyl-phenyl)-2-cyclopentyloxyimino-acetamide]
29 | O=C(Nc1nc2ccccc2s1)/C(=N/OC1CCCC1)c1ccc(Cl)c(Cl)c1 [Example 19, (E)-N-Benzothiazol-2-yl-2-cyclopentyloxyimino-2-(3,4-dichloro-phenyl)-acetamide]
0.79 | CC(C)O/N=C(/C(=O)Nc1nc2ccccc2s1)c1ccc(S(C)(=O)=O)c(Cl)c1 [Example 7, (E)-N-Benzothiazol-2-yl-2-(3-chloro-4-methanesulfonyl-phenyl)-2-isopropoxyimino-acetamide]
0.26 | CS(=O)(=O)c1ccc(/C(=N\OC2CCCC2)C(=O)Nc2nc3ccccc3s2)cc1Cl [Example 14, (E)-N-Benzothiazol-2-yl-2-(3-chloro-4-methanesulfonyl-phenyl)-2-cyclopentyloxyimino-acetamide]
12 | Cn1ccc(NC(=O)/C(=N/OC2CCCCC2)c2ccc(S(C)(=O)=O)c(Cl)c2)n1 [Example 9, (E)-2-(3-Chloro-4-methanesulfonyl-phenyl)-2-cyclohexyloxyimino-N-(1-methyl-1H-pyrazol-3-yl)-acetamide]
0.35 | CS(=O)(=O)c1ccc(/C(=N\OC2CCCC2)C(=O)Nc2ccn(Cc3cccnc3)n2)cc1Cl [Example 31, (E)-2-(3-Chloro-4-methanesulfonyl-phenyl)-2-cyclopentyloxyimino-N-(1-pyridin-3-ylmethyl-1H-pyrazol-3-yl)-acetamide]

SMILES | SC1.5 [µM]
CC(C)CO/N=C(/C(=O)Nc1ccn(C)n1)c1ccc(S(C)(=O)=O)c(Cl)c1 [Example 24, (E)-2-(3-Chloro-4-methanesulfonyl-phenyl)-2-isobutoxyimino-N-(1-methyl-1H-pyrazol-3-yl)-acetamide] | 5.3
CC(C)CO/N=C(/C(=O)Nc1nc2ccccc2s1)c1ccc(S(C)(=O)=O)c(Cl)c1 [Example 25, (E)-N-Benzothiazol-2-yl-2-(3-chloro-4-methanesulfonyl-phenyl)-2-isobutoxyimino-acetamide] | 1.6
